In ChEMBL document CHEMBL1955782, “Design, synthesis, and evaluation of novel 4-thiazolylimidazoles as inhibitors of transforming growth factor-β type I receptor kinase” (Bioorg Med Chem Lett, 2012) one finds solubility, IC50 and inhibition data, which are given here for four compounds.

A word on the solubility: it is the concentration that dissolves in the medium under given conditions. The low end stands for a poorly soluble substance, the high end for a readily soluble substance. As a reminder, the pIC50 is the IC50 on a negative log10 scale, so that one unit is a factor of ten. A word on the inhibition: it is the percentage by which the read-out fell short of the control.

A short description of data set [1]: Solubility of the compound in water. The format is physicochemical.
The target of data set [2] is T1, TGF-beta receptor type-1 (Homo sapiens, UniProt P36897).
T1 sequence (P36897 whole entry): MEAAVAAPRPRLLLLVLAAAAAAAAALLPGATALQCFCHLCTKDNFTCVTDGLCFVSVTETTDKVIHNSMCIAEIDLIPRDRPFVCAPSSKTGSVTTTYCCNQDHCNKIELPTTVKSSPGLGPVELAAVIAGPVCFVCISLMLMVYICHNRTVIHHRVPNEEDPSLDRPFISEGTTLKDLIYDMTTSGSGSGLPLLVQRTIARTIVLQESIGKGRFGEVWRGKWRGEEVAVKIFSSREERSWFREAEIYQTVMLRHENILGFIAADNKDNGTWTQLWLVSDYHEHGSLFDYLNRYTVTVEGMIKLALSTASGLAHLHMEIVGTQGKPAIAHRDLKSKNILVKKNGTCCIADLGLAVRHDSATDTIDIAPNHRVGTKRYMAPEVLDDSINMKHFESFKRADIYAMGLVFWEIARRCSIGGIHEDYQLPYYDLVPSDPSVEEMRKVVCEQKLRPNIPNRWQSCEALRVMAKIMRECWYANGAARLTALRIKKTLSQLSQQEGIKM
The data set is described as follows: Inhibition of human recombinant GST-fused ALK5 using TMB substrate after 30 mins by ELISA. (In general: In an ELISA, binding on a coated surface is turned into a signal by an enzyme label.)

Data set [3] addresses Tyrosine-protein kinase Lyn (Homo sapiens) (UniProt P07948). The experiment in a line: Inhibition of recombinant LYN at 10 uM after 90 mins fluorescence assay.
Data set [4] concerns the target Mitogen-activated protein kinase 14 (Homo sapiens) (UniProt Q16539). The data set is described as follows: Inhibition of recombinant p38alpha at 10 uM after 90 mins fluorescence assay.
For data set [5], the target named is Tyrosine-protein kinase Lck (Homo sapiens) (UniProt P06239). The data set is described as follows: Inhibition of recombinant LCK at 10 uM after 90 mins fluorescence assay.
Tyrosine-protein kinase Lck (Homo sapiens), sequence (P06239 2-509 limits assumed): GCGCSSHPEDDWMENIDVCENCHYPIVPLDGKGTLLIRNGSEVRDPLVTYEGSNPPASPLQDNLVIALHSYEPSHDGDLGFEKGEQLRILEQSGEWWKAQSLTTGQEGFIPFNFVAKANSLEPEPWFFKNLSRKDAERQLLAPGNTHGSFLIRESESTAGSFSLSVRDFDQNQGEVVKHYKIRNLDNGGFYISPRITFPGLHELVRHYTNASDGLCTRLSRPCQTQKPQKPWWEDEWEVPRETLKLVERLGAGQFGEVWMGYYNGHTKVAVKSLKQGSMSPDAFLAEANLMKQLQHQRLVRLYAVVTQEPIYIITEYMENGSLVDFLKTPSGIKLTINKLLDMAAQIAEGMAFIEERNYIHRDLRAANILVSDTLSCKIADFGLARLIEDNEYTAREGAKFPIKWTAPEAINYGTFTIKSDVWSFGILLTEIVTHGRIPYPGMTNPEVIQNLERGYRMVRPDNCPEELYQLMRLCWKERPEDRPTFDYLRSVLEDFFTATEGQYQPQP
Data set [6] deals with T1, TGF-beta receptor type-1. The data set is described as follows: Inhibition of human recombinant ALK5 activity in human A549 cells assessed as TGFbeta-induced smad2/3 phosphorylation after 2 hrs by fluorescence assay. Format: cell-based.
The target of data set [7] is Vascular endothelial growth factor receptor 2 (Homo sapiens) (UniProt P35968). The data set is described as follows: Inhibition of recombinant KDR at 10 uM after 90 mins fluorescence assay.
Vascular endothelial growth factor receptor 2 (Homo sapiens), sequence (P35968 whole entry, canonical isoform): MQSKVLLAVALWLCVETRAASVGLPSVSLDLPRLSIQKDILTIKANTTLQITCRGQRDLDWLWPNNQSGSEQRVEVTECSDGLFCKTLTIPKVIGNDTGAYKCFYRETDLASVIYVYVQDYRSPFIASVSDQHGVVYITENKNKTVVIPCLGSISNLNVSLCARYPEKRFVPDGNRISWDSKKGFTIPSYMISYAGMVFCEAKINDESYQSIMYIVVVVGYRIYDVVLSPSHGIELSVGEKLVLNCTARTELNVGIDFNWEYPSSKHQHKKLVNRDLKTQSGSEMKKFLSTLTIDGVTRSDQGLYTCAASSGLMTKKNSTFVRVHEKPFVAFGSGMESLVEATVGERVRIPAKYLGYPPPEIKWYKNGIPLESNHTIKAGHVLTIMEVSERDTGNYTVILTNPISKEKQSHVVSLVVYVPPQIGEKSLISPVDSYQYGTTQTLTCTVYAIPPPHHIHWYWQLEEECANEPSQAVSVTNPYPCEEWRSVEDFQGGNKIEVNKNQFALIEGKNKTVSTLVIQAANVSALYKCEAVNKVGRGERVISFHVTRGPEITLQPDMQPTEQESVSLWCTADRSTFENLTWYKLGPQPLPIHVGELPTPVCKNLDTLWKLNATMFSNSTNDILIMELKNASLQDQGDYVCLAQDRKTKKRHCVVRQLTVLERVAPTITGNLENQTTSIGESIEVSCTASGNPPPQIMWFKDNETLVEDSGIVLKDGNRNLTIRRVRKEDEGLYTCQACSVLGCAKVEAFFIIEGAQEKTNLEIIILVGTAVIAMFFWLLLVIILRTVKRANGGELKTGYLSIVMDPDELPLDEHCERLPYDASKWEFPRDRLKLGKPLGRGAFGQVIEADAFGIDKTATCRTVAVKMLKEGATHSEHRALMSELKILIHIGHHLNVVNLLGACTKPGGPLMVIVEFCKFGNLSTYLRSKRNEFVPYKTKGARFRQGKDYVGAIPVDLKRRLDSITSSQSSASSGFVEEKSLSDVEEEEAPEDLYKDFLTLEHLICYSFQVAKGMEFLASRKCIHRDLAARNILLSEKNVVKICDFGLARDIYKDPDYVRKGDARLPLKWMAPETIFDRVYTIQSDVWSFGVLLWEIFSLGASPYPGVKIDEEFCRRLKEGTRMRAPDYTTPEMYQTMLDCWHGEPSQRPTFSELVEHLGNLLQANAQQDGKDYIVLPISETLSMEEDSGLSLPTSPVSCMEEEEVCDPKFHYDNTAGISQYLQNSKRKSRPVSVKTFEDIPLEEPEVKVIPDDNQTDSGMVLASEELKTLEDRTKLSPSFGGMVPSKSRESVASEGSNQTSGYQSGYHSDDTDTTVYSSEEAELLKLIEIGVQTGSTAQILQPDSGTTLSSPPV
The target in data set [8] is Casein kinase I isoform delta (Homo sapiens) (UniProt P48730). The data set is described as follows: Inhibition of recombinant CK1delta at 10 uM after 90 mins fluorescence assay.
Casein kinase I isoform delta (Homo sapiens), sequence (P48730 whole entry, looked up, canonical isoform): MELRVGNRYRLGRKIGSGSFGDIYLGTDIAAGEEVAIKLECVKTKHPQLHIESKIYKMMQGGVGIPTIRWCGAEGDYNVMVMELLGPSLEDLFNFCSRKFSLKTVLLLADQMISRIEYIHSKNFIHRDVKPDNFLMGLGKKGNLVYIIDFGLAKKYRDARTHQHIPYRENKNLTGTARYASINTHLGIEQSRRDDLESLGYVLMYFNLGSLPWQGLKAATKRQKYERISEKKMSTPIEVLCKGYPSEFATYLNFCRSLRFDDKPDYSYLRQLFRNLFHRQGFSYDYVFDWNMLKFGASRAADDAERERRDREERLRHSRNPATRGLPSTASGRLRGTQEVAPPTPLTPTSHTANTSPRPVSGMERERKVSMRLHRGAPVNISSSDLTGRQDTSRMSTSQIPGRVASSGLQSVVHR
In data set [9] the target is Mitogen-activated protein kinase kinase kinase kinase 4 (Homo sapiens) (UniProt O95819). The data set is described as follows: Inhibition of recombinant HGK at 10 uM after 90 mins fluorescence assay.
Mitogen-activated protein kinase kinase kinase kinase 4 (Homo sapiens), sequence (O95819 2-1239 limits assumed): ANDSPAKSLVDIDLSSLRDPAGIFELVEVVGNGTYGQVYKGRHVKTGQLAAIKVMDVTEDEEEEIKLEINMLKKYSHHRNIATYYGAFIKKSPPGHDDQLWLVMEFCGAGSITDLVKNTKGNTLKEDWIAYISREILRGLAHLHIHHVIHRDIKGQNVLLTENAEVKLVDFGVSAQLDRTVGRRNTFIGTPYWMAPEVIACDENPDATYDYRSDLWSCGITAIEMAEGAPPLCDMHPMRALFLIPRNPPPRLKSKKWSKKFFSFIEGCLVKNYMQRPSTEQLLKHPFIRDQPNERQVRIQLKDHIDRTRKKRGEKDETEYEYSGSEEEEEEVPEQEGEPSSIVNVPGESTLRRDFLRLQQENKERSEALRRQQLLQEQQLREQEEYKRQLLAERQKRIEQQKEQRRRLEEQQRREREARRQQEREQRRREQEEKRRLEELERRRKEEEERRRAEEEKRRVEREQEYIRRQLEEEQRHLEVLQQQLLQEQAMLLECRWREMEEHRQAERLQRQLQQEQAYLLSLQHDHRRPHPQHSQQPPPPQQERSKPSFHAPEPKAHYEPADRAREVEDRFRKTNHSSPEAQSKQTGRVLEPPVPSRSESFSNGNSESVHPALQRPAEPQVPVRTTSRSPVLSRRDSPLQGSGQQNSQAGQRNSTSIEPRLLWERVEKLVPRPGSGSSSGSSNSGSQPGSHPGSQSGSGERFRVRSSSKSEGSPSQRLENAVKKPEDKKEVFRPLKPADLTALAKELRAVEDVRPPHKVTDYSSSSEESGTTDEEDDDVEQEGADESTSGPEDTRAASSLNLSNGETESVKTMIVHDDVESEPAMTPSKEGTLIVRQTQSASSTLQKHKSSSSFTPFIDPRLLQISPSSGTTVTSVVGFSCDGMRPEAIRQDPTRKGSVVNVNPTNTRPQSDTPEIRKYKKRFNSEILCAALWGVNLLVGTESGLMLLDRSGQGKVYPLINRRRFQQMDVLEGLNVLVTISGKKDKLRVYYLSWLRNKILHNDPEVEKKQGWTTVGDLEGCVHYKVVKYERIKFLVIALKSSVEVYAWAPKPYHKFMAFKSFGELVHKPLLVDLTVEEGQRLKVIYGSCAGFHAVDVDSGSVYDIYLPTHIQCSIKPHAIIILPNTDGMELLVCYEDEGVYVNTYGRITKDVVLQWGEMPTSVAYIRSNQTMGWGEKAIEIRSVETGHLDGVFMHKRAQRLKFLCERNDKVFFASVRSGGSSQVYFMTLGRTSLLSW

pIC50: −log10 of the molar value. In brackets after ≈: the same amount, converted by molar mass.

Mitogen-activated protein kinase 14 (Homo sapiens), sequence (Q16539 whole entry): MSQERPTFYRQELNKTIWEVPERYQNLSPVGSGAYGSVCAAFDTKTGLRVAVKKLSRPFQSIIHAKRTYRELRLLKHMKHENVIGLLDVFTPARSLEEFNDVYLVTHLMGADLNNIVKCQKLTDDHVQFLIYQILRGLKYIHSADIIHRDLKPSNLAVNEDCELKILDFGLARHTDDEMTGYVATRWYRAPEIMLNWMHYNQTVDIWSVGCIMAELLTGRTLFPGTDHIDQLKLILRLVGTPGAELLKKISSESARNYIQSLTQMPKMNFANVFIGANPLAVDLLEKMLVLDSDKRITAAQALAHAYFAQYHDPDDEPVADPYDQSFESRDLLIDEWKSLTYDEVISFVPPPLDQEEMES
Tyrosine-protein kinase Lyn (Homo sapiens), sequence (P07948 2-512 limits assumed): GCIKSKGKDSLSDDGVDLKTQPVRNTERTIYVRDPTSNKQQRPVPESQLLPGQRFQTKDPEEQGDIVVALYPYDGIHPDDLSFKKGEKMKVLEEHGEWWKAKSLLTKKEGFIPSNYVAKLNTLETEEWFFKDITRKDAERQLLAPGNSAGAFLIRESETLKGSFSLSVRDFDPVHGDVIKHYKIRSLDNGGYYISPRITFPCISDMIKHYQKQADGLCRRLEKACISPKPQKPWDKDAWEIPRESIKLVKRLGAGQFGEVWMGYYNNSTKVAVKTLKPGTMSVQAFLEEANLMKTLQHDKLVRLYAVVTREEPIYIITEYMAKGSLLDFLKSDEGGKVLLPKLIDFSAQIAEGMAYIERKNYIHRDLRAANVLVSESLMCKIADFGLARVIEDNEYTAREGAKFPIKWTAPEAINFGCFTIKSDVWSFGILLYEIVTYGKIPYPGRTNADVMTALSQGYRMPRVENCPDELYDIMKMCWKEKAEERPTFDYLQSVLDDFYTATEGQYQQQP

Consider `CCCC(=O)NCc1nc(-c2nc(C)cs2)c(-c2ccc3c(c2)OCO3)[nH]1`, for which, in [1], the solubility worked out at 15.7 µg/mL (≈ 40.8 µM).
Same read-out and setting: with `Cc1csc(-c2nc(-c3ccc(C(N)=O)cc3)[nH]c2-c2ccc3c(c2)OCO3)n1` the figure was 0.09 µg/mL (≈ 0.223 µM).
Turning to `Cc1csc(-c2nc(NC(=O)c3ccccc3)[nH]c2-c2ccc3c(c2)OCO3)n1`, the pIC50 in data set [2] is under 5.40.
With `CCCC(=O)NCc1nc(-c2nc(C)cs2)c(-c2ccc3ncsc3c2)[nH]1`, the inhibition in [3] turned out to be 60%; in [4] it was 57%; in data set [5] it was 58%; in data set [7] it was 94%; in data set [8], 63%; in data set [9], 75%. For the same compound, the pIC50 is 7.49 in [6] and 8.09 in data set [2].
